From US8883827B2, “Azole derivatives as WTN pathway inhibitors” (Oslo University Hospital HF, priority 2009, dated 2014)

Experiments:
[1] = test system: LiCl-induced activation of canonical Wnt signaling; assay: LiCl-induced ST-Luc reporter assay in HEK293 cells; type: cell-based; conditions: Homo sapiens; HEK293, 25 mM LiCl, 24 h; read-out: IC50, antagonism of LiCl-induced activation of canonical Wnt signaling
Description: Transfection of HEK293 cells was performed as described in Example 22, but using 0.23 μg NF-κB-Luciferase and 0.02 μg Renilla. […] All treated reporter cells were finally lysed and the firefly luciferase and Renilla activities were measured on a 20/20n Luminometer (Turner BioSystems) as described in the Dual-Glo™ Luciferase Assay System Technical Manual (Promega).

β-catenin = assay: Western blot and immunocytochemistry of β-catenin in SW480 cells; type: cell-based
Description: The effect of compound No. 1 on the presence of β-catenin in the nucleus or in the cytoplasm of colorectal cancer SW480 cells was investigated. SW480 cells contain activating mutations in the APC gene, leading to elevated levels of nuclear β-catenin and aberrant canonical Wnt signaling. A Western blot analysis was carried out using cell lysates from compound-treated SW480 cells and an antibody against the active form of β-catenin (non-phosphorylated N-terminal—ABC). In parallel, antibodies were used against total β-catenin (β-catenin), or β-catenin phosphorylated at the N-terminal (-β-catenin) which detects a degradable form of β-catenin.
SW480 cells were seeded and treated with compound No. 1 as described in Example 25. Cell lysates were immunoblotted using monoclonal active-β-catenin (ABC—Millipore), monoclonal β-catenin (β-catenin—BD Transduction Laboratories™), phospho-β-catenin (pβ-catenin—Cell Signaling Technology) and actin (Sigma). Primary antibodies were visualized with secondary HRP conjugated antibodies (Santa Cruz Biotechnology) and enhanced chemiluminescent substrate (Pierce® ECL Western Blotting Substrate, Thermo Scientific).
For immunocytochemical experiments, SW480 cells were seeded and treated as described in Example 24. After 72 hours, cells were fixed in 4% PFA in PBS for 10 minutes. Immunostaining was performed as described in standard protocols. Primary antibody (monoclonal β-catenin, BD Transduction Laboratories™) and secondary antibody (Alexa Fluor® 594, Invitrogen) were diluted 1:1000. The samples were imaged by using a Zeiss Axiovert 200M Fluorescence/Live cell Imaging Microscope with X40 magnification and the same exposure times. Cells were stained with DAPI (4′,6-diamidino-2-phenylindole) according to standard protocols.

SW480 cells = assay: Growth inhibition (GI50) MTS assay; type: cell-based; conditions: Homo sapiens, 72 h
LMPTP-B(h) = biological target: T1, LMPTP-B(h) (Homo sapiens, UniProt P24666); assay: Phosphatase screen; type: biochemical; conditions: 0.1% DMSO control = 100%
T1 construct: purchased Millipore (KinaseProfiler service)

MKP5(h) = biological target: T2, MKP5(h) (Homo sapiens, UniProt Q9Y6W6); assay: Phosphatase screen; type: biochemical; conditions: 0.1% DMSO control = 100%
T2 construct: purchased Millipore (KinaseProfiler service)

PTP-1B(h) = biological target: T3, PTP-1B(h) (Homo sapiens, UniProt P18031); assay: Phosphatase screen; type: biochemical; conditions: 0.1% DMSO control = 100%
T3 construct: purchased Millipore (KinaseProfiler service)

Abl(h) = biological target: T4, Abl(h) (Homo sapiens, UniProt P00519); assay: Kinase screen; type: biochemical; conditions: 0.1% DMSO control = 100%
T4 construct: purchased Millipore (KinaseProfiler service)

ALK(h) = biological target: T5, ALK(h) (Homo sapiens, UniProt Q9UM73); assay: Kinase screen; type: biochemical; conditions: 0.1% DMSO control = 100%
T5 construct: purchased Millipore (KinaseProfiler service)

ASK1(h) = biological target: T6, ASK1(h) (Homo sapiens, UniProt Q99683); assay: Kinase screen; type: biochemical; conditions: 0.1% DMSO control = 100%
T6 construct: purchased Millipore (KinaseProfiler service)

Aurora-A(h) = biological target: T7, Aurora-A(h) (Homo sapiens, UniProt O14965); assay: Kinase screen; type: biochemical; conditions: 0.1% DMSO control = 100%
T7 construct: purchased Millipore (KinaseProfiler service)

CDK7/cyclinH/MAT1(h) = biological target: T8, CDK7/cyclinH/MAT1(h) (Homo sapiens, UniProt P50613); assay: Kinase screen; type: biochemical; conditions: 0.1% DMSO control = 100%
T8 construct: purchased Millipore (KinaseProfiler service)

CHK1(h) = biological target: T9, CHK1(h) (Homo sapiens, UniProt O14757); assay: Kinase screen; type: biochemical; conditions: 0.1% DMSO control = 100%
T9 construct: purchased Millipore (KinaseProfiler service)

CK2(h) = biological target: T10, CK2(h) (Homo sapiens, UniProt P68400); assay: Kinase screen; type: biochemical; conditions: 0.1% DMSO control = 100%
T10 construct: purchased Millipore (KinaseProfiler service)

cKit(h) = biological target: T11, cKit(h) (Homo sapiens, UniProt P10721); assay: Kinase screen; type: biochemical; conditions: 0.1% DMSO control = 100%
T11 construct: purchased Millipore (KinaseProfiler service)

EGFR(h) = biological target: T12, EGFR(h) (Homo sapiens, UniProt P00533); assay: Kinase screen; type: biochemical; conditions: 0.1% DMSO control = 100%
T12 construct: purchased Millipore (KinaseProfiler service)

EphB4(h) = biological target: T13, EphB4(h) (Homo sapiens, UniProt P54760); assay: Kinase screen; type: biochemical; conditions: 0.1% DMSO control = 100%
T13 construct: purchased Millipore (KinaseProfiler service)

JAK2(h) = biological target: T14, JAK2(h) (Homo sapiens, UniProt O60674); assay: Kinase screen; type: biochemical; conditions: 0.1% DMSO control = 100%
T14 construct: purchased Millipore (KinaseProfiler service)

LOK(h) = biological target: T15, LOK(h) (Homo sapiens, UniProt O94804); assay: Kinase screen; type: biochemical; conditions: 0.1% DMSO control = 100%
T15 construct: purchased Millipore (KinaseProfiler service)

Lyn(h) = biological target: T16, Lyn(h) (Homo sapiens, UniProt P07948); assay: Kinase screen; type: biochemical; conditions: 0.1% DMSO control = 100%
T16 construct: purchased Millipore (KinaseProfiler service)

MAPKAP-K2(h) = biological target: T17, MAPKAP-K2(h) (Homo sapiens, UniProt P49137); assay: Kinase screen; type: biochemical; conditions: 0.1% DMSO control = 100%
T17 construct: purchased Millipore (KinaseProfiler service)

MEK1(h) = biological target: T18, MEK1(h) (Homo sapiens, UniProt Q02750); assay: Kinase screen; type: biochemical; conditions: 0.1% DMSO control = 100%
T18 construct: purchased Millipore (KinaseProfiler service)

MKK7β(h) = biological target: T19, MKK7β(h) (Homo sapiens, UniProt O14733); assay: Kinase screen; type: biochemical; conditions: 0.1% DMSO control = 100%
T19 construct: purchased Millipore (KinaseProfiler service)

MST1(h) = biological target: T20, MST1(h) (Homo sapiens, UniProt Q13043); assay: Kinase screen; type: biochemical; conditions: 0.1% DMSO control = 100%
T20 construct: purchased Millipore (KinaseProfiler service)

PDGFRβ(h) = biological target: T21, PDGFRβ(h) (Homo sapiens, UniProt P09619); assay: Kinase screen; type: biochemical; conditions: 0.1% DMSO control = 100%
T21 construct: purchased Millipore (KinaseProfiler service)

Plk3(h) = biological target: T22, Plk3(h) (Homo sapiens, UniProt Q9H4B4); assay: Kinase screen; type: biochemical; conditions: 0.1% DMSO control = 100%
T22 construct: purchased Millipore (KinaseProfiler service)

T4 sequence (P00519 whole entry): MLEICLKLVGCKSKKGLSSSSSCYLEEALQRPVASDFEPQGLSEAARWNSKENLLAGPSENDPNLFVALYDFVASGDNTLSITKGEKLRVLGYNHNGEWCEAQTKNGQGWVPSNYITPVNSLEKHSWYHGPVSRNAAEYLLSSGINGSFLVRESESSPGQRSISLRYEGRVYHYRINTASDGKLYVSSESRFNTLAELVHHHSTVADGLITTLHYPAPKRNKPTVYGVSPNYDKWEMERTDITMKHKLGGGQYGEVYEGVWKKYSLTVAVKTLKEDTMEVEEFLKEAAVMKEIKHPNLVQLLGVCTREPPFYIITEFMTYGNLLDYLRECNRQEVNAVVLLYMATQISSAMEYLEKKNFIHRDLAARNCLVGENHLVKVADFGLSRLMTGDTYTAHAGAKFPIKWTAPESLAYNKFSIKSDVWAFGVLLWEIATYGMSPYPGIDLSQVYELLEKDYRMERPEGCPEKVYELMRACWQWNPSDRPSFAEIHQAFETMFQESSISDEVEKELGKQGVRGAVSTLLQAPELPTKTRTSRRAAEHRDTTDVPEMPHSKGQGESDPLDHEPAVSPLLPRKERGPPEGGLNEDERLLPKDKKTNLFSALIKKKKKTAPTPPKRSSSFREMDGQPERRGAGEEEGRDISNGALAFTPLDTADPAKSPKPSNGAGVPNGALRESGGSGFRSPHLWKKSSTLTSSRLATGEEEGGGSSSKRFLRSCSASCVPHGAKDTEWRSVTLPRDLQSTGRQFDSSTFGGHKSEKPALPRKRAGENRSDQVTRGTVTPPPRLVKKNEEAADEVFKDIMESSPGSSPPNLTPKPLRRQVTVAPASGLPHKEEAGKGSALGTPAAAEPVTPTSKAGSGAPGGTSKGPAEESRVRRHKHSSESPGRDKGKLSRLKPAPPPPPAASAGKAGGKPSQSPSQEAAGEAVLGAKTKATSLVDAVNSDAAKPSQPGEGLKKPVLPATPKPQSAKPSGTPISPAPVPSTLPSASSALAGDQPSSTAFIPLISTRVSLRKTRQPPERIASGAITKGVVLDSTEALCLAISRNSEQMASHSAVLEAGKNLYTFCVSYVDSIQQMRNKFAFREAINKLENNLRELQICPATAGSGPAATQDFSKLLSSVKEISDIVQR
T12 sequence (P00533 25-1210): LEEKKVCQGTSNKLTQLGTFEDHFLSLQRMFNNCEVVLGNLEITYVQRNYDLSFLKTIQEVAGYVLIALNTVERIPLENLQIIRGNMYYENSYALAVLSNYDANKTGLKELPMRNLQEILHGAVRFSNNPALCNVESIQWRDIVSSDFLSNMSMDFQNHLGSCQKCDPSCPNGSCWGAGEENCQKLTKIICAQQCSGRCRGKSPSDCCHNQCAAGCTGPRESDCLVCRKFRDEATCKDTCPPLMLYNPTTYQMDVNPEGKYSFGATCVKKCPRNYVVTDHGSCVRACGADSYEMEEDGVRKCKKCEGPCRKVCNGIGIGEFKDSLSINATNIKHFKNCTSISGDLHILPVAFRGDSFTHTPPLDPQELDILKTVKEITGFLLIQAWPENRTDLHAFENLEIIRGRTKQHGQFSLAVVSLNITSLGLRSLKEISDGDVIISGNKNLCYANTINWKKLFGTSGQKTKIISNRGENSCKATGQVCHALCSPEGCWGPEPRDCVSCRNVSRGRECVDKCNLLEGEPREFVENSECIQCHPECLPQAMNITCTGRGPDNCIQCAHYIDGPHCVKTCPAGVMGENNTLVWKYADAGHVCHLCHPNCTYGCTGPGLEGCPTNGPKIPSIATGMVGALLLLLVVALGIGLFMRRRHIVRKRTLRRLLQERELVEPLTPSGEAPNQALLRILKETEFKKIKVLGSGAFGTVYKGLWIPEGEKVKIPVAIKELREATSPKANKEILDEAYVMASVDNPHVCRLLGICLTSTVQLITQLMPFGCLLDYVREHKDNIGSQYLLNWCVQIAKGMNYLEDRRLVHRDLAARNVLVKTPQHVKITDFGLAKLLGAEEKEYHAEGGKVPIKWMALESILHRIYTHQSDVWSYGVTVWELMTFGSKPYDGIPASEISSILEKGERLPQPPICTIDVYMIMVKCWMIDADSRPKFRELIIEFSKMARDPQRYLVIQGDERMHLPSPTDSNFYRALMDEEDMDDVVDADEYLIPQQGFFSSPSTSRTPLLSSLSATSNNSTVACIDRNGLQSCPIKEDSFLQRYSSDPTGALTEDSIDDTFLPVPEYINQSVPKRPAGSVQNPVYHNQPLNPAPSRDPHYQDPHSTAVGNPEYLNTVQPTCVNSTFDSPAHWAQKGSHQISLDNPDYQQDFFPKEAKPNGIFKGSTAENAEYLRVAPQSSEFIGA
T16 sequence (P07948 whole entry): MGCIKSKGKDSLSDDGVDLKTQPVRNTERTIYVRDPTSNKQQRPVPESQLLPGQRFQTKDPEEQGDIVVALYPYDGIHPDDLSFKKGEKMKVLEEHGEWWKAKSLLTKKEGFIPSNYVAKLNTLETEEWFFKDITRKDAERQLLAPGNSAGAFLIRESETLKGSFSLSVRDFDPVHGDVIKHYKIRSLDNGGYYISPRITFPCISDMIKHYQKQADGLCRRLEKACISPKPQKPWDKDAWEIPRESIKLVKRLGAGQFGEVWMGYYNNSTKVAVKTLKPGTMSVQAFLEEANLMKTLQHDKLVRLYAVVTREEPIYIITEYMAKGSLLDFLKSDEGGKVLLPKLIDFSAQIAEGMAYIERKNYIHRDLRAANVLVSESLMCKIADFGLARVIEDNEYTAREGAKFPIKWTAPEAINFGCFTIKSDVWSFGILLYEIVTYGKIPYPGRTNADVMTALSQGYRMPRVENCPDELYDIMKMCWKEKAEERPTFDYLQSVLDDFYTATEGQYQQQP
T13 sequence (P54760 16-987): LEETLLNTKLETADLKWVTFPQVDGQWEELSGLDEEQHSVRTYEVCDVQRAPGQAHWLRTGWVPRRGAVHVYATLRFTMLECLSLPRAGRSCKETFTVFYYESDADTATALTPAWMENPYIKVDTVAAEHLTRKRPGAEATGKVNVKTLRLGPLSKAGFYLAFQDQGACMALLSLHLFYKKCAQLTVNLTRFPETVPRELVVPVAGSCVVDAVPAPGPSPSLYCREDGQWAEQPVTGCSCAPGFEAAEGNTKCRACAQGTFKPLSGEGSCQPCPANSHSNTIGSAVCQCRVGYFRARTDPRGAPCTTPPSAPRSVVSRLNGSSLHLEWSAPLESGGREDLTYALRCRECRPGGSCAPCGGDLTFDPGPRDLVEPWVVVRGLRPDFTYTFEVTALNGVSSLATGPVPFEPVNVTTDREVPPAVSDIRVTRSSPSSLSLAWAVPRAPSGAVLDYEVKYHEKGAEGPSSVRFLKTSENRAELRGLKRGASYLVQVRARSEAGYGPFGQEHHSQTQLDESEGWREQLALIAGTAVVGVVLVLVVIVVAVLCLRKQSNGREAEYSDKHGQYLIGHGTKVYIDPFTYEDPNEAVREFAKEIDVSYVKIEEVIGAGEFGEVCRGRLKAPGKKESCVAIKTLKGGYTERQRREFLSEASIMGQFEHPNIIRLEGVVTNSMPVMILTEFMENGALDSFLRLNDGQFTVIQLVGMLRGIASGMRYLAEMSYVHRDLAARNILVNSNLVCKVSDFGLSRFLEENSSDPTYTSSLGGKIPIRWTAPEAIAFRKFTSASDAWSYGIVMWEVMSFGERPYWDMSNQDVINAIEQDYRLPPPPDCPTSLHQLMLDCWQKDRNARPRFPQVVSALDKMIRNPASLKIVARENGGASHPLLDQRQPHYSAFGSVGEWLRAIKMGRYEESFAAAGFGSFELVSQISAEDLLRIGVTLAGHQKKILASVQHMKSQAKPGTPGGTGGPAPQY
T11 sequence (P10721 26-976): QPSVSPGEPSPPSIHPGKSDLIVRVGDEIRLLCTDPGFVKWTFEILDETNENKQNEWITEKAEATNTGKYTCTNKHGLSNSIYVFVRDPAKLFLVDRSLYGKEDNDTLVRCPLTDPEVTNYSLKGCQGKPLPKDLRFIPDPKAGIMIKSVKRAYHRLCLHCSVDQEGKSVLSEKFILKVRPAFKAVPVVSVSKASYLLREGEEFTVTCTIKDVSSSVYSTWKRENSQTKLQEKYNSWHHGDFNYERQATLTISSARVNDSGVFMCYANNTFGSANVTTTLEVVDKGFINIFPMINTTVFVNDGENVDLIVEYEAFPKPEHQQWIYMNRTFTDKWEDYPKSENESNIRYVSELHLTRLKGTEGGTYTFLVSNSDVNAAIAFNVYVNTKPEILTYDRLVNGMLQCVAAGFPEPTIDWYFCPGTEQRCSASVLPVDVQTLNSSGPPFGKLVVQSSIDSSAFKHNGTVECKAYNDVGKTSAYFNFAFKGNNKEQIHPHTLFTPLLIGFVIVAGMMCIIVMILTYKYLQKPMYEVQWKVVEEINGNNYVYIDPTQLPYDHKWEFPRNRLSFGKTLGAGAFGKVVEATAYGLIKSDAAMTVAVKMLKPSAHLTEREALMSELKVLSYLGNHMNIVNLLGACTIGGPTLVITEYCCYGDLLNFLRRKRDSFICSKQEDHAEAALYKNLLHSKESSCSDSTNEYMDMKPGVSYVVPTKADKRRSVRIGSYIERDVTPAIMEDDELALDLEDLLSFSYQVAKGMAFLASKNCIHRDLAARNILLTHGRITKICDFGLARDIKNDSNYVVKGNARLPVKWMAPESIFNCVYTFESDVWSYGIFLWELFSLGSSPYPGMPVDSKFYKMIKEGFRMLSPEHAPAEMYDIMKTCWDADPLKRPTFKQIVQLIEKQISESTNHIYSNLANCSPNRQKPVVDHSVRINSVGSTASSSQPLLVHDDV
T1 sequence (P24666 1-158 isoform P24666-2): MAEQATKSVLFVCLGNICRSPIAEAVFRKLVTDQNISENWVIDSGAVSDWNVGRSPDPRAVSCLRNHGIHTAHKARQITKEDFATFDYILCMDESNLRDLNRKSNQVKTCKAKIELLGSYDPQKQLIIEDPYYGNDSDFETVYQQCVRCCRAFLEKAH

## COc1ccc(-n2c(SCc3nc(-c4ccc(C)cc4)no3)nnc2-c2ccncc2)cc1 [Compound 1]
[1]
  IC50: 0.42 µM
β-catenin; SW480, 1 μM, 72 hours
  active β-catenin (non-phosphorylated, ABC) in Western blot: barely detectable
β-catenin; SW480, 72-hour exposure
  overall levels of total β-catenin (Western blot): reduced
β-catenin; SW480, 72-hour incubation
  nuclear total β-catenin (immunofluorescence): Reduction
β-catenin; SW480, 24 hours after adding compound
  level of degradable pβ-catenin (Western blot): temporarily increased
β-catenin; SW480, 72 h, all concentrations
  active β-catenin (ABC) level (Western blot): even stronger reduction
SW480 cells
  GI50: 11.5 µM
LMPTP-B(h)
  activity at 10 µM: 100%
MKP5(h)
  activity at 10 µM: 99%
PTP-1B(h)
  activity at 10 µM: 105%
Abl(h)
  activity at 10 µM: 93%
ALK(h)
  activity at 10 µM: 91%
ASK1(h)
  activity at 10 µM: 106%
Aurora-A(h)
  activity at 10 µM: 95%
CDK7/cyclinH/MAT1(h)
  activity at 10 µM: 108%
CHK1(h)
  activity at 10 µM: 106%
CK2(h)
  activity at 10 µM: 105%
cKit(h)
  activity at 10 µM: 116%
EGFR(h)
  activity at 10 µM: 108%
EphB4(h)
  activity at 10 µM: 105%
JAK2(h)
  activity at 10 µM: 118%
LOK(h)
  activity at 10 µM: 109%
Lyn(h)
  activity at 10 µM: 109%
MAPKAP-K2(h)
  activity at 10 µM: 85%
MEK1(h)
  activity at 10 µM: 108%
MKK7β(h)
  activity at 10 µM: 90%
MST1(h)
  activity at 10 µM: 106%
PDGFRβ(h)
  activity at 10 µM: 129%
Plk3(h)
  activity at 10 µM: 104%
